IC50 data for 38 molecules are collected here from patent US8946439B2, “Amide compounds, compositions and uses thereof” (Evotec AG, priority 2008, dated 2015).

Where two headings read alike, the source gives them in different places.

For one test, the target named is T1, hP2X3 (Homo sapiens, UniProt P56373).
T1 construct: expressed in transfected cells; host or cells: e.g. HEK293 or 1321N1
T1 sequence (P56373 1-397): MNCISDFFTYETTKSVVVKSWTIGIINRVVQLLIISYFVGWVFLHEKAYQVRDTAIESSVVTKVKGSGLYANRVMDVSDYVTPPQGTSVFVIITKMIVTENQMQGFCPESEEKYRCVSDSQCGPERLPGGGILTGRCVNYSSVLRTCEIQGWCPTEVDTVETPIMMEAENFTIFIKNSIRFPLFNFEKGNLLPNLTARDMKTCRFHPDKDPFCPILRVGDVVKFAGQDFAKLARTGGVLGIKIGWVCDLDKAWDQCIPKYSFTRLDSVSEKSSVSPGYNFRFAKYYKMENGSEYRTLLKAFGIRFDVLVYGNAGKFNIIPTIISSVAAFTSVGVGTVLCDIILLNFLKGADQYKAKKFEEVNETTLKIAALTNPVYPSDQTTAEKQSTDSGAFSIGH
Nature of the test: Calcium uptake assay (P2X antagonist assay), P2X3 homomer. The class given is cell-based. The following applies: hP2X3. The method in brief: (§1)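 Stably or transiently transfected HEK293 or 1321N1 cells; the heteromer is made by adding P2X3 to a P2X2-stable line, with heteromer function isolated pharmacologically. The peak-minus-baseline FLIPR calcium signal gives % inhibition and a 4-parameter-logistic IC50.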

The target of the next test is T2, hP2X2/3H (Homo sapiens, UniProt P56373+Q9UBL9).
T2 construct: expressed in transfected cells; host or cells: e.g. HEK293 or 1321N1
T2 sequence (Q9UBL9 1-471): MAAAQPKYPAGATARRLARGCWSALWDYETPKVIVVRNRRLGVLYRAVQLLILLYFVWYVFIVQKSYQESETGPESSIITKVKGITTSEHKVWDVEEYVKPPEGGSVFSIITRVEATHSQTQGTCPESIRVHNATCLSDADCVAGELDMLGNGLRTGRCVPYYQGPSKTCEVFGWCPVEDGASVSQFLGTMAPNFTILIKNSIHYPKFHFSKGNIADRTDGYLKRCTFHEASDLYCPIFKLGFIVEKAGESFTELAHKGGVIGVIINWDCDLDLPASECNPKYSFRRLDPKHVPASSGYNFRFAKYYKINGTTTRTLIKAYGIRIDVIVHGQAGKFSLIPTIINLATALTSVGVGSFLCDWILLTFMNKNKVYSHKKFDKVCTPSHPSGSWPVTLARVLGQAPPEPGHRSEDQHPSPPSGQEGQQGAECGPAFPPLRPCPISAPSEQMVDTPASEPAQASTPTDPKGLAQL
T2 sequence (P56373 1-397): T1 sequence (P56373 1-397)
Nature of the test: Calcium uptake assay (P2X antagonist assay), P2X2/3 heteromer. The class given is cell-based. The note with it: hP2X2/3H. The method in brief: as §1

[1] abbreviates: calcium uptake assay, read-out: IC50 hP2X3 (nM), Ca Influx.
Where [2] appears, read: calcium uptake assay, read-out: IC50 hP2X2/3H (nM), Ca Influx.
Setting [3] is: Ca influx (calcium uptake assay), read-out: IC50 hP2X3.
[4] abbreviates: Ca influx (calcium uptake assay), read-out: IC50 hP2X2/3H.

Regarding `Cc1ccc(-c2cc(C(=O)N[C@H](C)c3ccc(C(F)(F)F)nc3)cc(S(C)(=O)=O)c2)nc1` [Compound 181, (R)-3-(5-Methylpyridin-2-yl)-5-(methylsulfonyl)-N-(1-(6-(trifluoromethyl)pyridin-3-yl)ethyl)benzamide], the IC50 on hP2X3 (setting [1]) is < 100 nM; at hP2X2/3H (setting [2]) it was 100 to 500 nM.

Turning to `Cc1ccc(-c2cc(C(=O)NCc3ccc(C)nc3)cc(S(=O)(=O)CC(C)C)c2)cc1` [Compound 183], the IC50 at hP2X3 (setting [1]) and on hP2X2/3H (setting [2]) was < 100 nM throughout.

On to `Cc1ccc(-c2cc(C(=O)NCc3cnc(C)nc3)cc(S(=O)(=O)CC(C)C)c2)cc1` [Compound 184], for which the IC50 at hP2X3 (setting [1]) and at hP2X2/3H (setting [2]) was < 100 nM throughout.

For the molecule `Cc1ccc(-c2cc(C(=O)NCc3ccc(C)nc3)cc(C(=O)N3Cc4ccccc4C3)c2)cc1` [Compound 185, 5-(Isoindoline-2-carbonyl)-4′-methyl-N-((6-methylpyridin-3-yl)methyl)biphenyl-3-carboxamide], the IC50 at hP2X3 (setting [1]) and on hP2X2/3H (setting [2]) was 100 to 500 nM throughout.

Turning to `Cc1ccc(-c2cc(C(=O)NCc3ccc(C)nc3)cc(C(=O)N3CCc4ccccc43)c2)cc1` [Compound 186], the IC50 on hP2X3 (setting [1]) was 100 to 500 nM; on hP2X2/3H (setting [2]) it was < 100 nM.

Consider `Cc1ccc(-c2cc(C(=O)NCc3ccc(C)nc3)cc(C(=O)N3CCc4ccccc4C3)c2)cc1` [Compound 187, 4′-Methyl-N-((6-methylpyridin-3-yl)methyl)-5-(1,2,3,4-tetrahydroisoquinoline-2-carbonyl)biphenyl-3-carboxamide], for which the IC50 on hP2X3 (setting [1]) and on hP2X2/3H (setting [2]) was 100 to 500 nM in each case.

Consider `Cc1ccc(-c2cc(C(=O)NCc3ccc(C)nc3)cc(C(=O)N3CCCc4ccccc43)c2)cc1` [Compound 188], for which the IC50 at hP2X3 (setting [1]) and at hP2X2/3H (setting [2]) was 100 to 500 nM in each case.

Regarding `Cc1ccc(-c2cc(C(=O)NCc3ccc(C)nc3)cc(C(=O)N3C(C)CCC3C)c2)cc1` (stereo not shown) [Compound 189], the IC50 on hP2X3 (setting [1]) and on hP2X2/3H (setting [2]) was < 100 nM each time.

For the molecule `Cc1ccc(-c2cc(C(=O)NCc3ccc(C)nc3)cc(C(=O)N3CCOc4ccccc43)c2)cc1` [Compound 190], the IC50 at hP2X3 (setting [1]) is 100 to 500 nM; on hP2X2/3H (setting [2]) it was < 100 nM.

For `Cc1ccc(-c2cc(C(=O)N[C@H](C)c3cnc(C)nc3)cc(C(=O)N3CCN4CCCC4C3)c2)cc1` (stereo partly drawn) [Compound 191, 4′-Methyl-N—((R)-1-(2-methylpyrimidin-5-yl)ethyl)-5-(octahydropyrrolo[1,2-a]pyrazine-2-carbonyl)biphenyl-3-carboxamide], the IC50 on hP2X3 (setting [1]) and at hP2X2/3H (setting [2]) was < 100 nM each time.

Take `Cc1ccc(-c2cc(C(=O)N[C@H](C)c3ccc(C)nc3)cc(C(=O)N3CCN4CCCC4C3)c2)cc1` (stereo partly shown) [Compound 192]: the IC50 on hP2X3 (setting [1]) and at hP2X2/3H (setting [2]) was < 100 nM each time.

As for `Cc1ccc(-c2cc(C(=O)NCc3ccc(C)nc3)cc(C(=O)N3C4CCC3CC4)c2)cc1` [Compound 193], the IC50 on hP2X3 (setting [1]) and at hP2X2/3H (setting [2]) was < 100 nM throughout.

For `Cc1ccc(-c2cc(C(=O)N[C@H](C)c3cnc(C)nc3)cc(S(=O)(=O)CC(C)C)c2)cc1` [Compound 194], the IC50 at hP2X3 (setting [1]) and on hP2X2/3H (setting [2]) was < 100 nM each time.

Regarding `Cc1ccc(-c2cc(C(=O)NCc3ccc(C)nc3)cc(C(=O)N3[C@H](C)CC[C@H]3C)c2)cc1` [Compound 195], the IC50 on hP2X3 (setting [1]) and on hP2X2/3H (setting [2]) was < 100 nM throughout.

With `Cc1ccc(-c2cc(C(=O)N[C@H](C)c3ccc(C)nc3)cc(S(=O)(=O)CC(C)C)c2)cc1` [Compound 196], the IC50 at hP2X3 (setting [1]) is 100 to 500 nM; at hP2X2/3H (setting [2]), < 100 nM.

For `Cc1ccc(-c2cc(C(=O)N[C@H](C)c3ccc(C)nc3)cc(S(=O)(=O)C(C)C)c2)cc1` [Compound 197], the IC50 at hP2X3 (setting [1]) and on hP2X2/3H (setting [2]) was < 100 nM throughout.

For `Cc1ccc(-c2cc(C(=O)N[C@H](C)c3cnc(C)nc3)cc(S(=O)(=O)C(C)C)c2)cc1` [Compound 198], the IC50 on hP2X3 (setting [3]) and on hP2X2/3H (setting [4]) was < 100 nM throughout.

For `Cc1ccc(-c2cc(C(=O)NCc3ccc(C)nc3)cc(S(=O)(=O)C(C)C)c2)cc1` [Compound 199], the IC50 at hP2X3 (setting [3]) and on hP2X2/3H (setting [4]) was < 100 nM in each case.

For the molecule `Cc1ccc(CNC(=O)c2cc(C(=O)N3CCCC3)cc(-c3ccc(Br)cc3)c2)cn1` [Compound 200, 4′-Bromo-N-((6-methylpyridin-3-yl)methyl)-5-(pyrrolidine-1-carbonyl)biphenyl-3-carboxamide], the IC50 at hP2X3 (setting [3]) and at hP2X2/3H (setting [4]) was < 100 nM throughout.

On to `Cc1ccc(-c2cc(C(=O)NCc3cnc(C)nc3)cc(S(=O)(=O)C(C)C)c2)cc1` [Compound 201], for which the IC50 on hP2X3 (setting [3]) and at hP2X2/3H (setting [4]) was < 100 nM each time.

As to `Cc1ccc(-c2cc(C(=O)NCc3ccc(C)nc3)cc(C(F)(F)F)c2)nc1` [Compound 202], the IC50 at hP2X3 (setting [3]) is 100 to 500 nM; on hP2X2/3H (setting [4]) it was > 1000 nM.

For the molecule `[2H]C([2H])([2H])c1ccc(-c2cc(C(=O)NCc3ccc(C)nc3)cc(C(=O)N3CCCC3)c2)cc1` [Compound 203, 4′-Methyl-d3-N-((6-methylpyridin-3-yl)methyl)-5-(pyrrolidine-1-carbonyl)biphenyl-3-carboxamide], the IC50 on hP2X3 (setting [3]) and at hP2X2/3H (setting [4]) was < 100 nM each time.

Turning to `Cc1ccc(-c2cc(C(=O)NCc3ccc(C)nc3)cc(C(F)(F)F)c2)cc1` [Compound 204], the IC50 on hP2X3 (setting [3]) is > 1000 nM; on hP2X2/3H (setting [4]), 501 to 1000 nM.

As for `Cc1ccc(-c2cc(C(=O)N[C@H](CCO)c3ccc(C)nc3)cc(S(C)(=O)=O)c2)cc1` [Compound 205], the IC50 on hP2X3 (setting [3]) and at hP2X2/3H (setting [4]) was < 100 nM throughout.

Turning to `COc1ccc([C@@H](CO)NC(=O)c2cc(-c3ccc(C)cc3)cc(S(C)(=O)=O)c2)cn1` [Compound 206, (S)—N-(2-Hydroxy-1-(6-methoxypyridin-3-yl)ethyl)-4′-methyl-5-(methylsulfonyl)biphenyl-3-carboxamide], the IC50 at hP2X3 (setting [3]) and on hP2X2/3H (setting [4]) was < 100 nM each time.

On to `Cc1ccc(-c2cc(C(=O)N[C@H](CO)c3ccc(C(F)F)nc3)cc(S(C)(=O)=O)c2)cc1` [Compound 207], for which the IC50 at hP2X3 (setting [3]) and at hP2X2/3H (setting [4]) was < 100 nM in each case.

As for `Cc1ccc(-c2cc(C(=O)NCc3ccc(C)[n+]([O-])c3)cc(C(O)CN3CCCC3)c2)cc1` (stereo not shown) [Compound 208], the IC50 at hP2X3 (setting [3]) was < 100 nM; on hP2X2/3H (setting [4]), 100 to 500 nM.

As to `CCS(=O)(=O)c1cc(C(=O)N[C@H](C)c2ccc(C)nc2)cc(-c2ccc(C)cc2)c1` [Compound 209], the IC50 on hP2X3 (setting [3]) and at hP2X2/3H (setting [4]) was < 100 nM in each case.

Turning to `CCS(=O)(=O)c1cc(C(=O)N[C@H](C)c2cnc(C)nc2)cc(-c2ccc(C)cc2)c1` [Compound 210], the IC50 at hP2X3 (setting [3]) and on hP2X2/3H (setting [4]) was < 100 nM throughout.

As to `CCS(=O)(=O)c1cc(C(=O)NCc2ccc(C)nc2)cc(-c2ccc(C)cc2)c1` [Compound 211], the IC50 at hP2X3 (setting [3]) and at hP2X2/3H (setting [4]) was < 100 nM throughout.

In the case of `CCS(=O)(=O)c1cc(C(=O)NCc2cnc(C)nc2)cc(-c2ccc(C)cc2)c1` [Compound 212], the IC50 at hP2X3 (setting [3]) and on hP2X2/3H (setting [4]) was < 100 nM in each case.

In the case of `Cc1ccc(-c2cc(C(=O)NC(c3ccc(C)nc3)C(F)(F)F)cc(S(C)(=O)=O)c2)cc1` (stereo not shown) [Compound 213], the IC50 on hP2X3 (setting [3]) and on hP2X2/3H (setting [4]) was > 1000 nM each time.

As to `Cc1ccc(-c2cc(C(=O)NC(c3ccc(C)nc3)C(F)(F)F)cc(C(=O)N3CCCC3)c2)cc1` (stereo not shown) [Compound 214], the IC50 on hP2X3 (setting [3]) and on hP2X2/3H (setting [4]) was > 1000 nM in each case.

Turning to `Cc1ncc(CNC(=O)c2cc(C(=O)N3CCCC3)cc(-c3ccc(Br)cc3)c2)cn1` [Compound 215], the IC50 at hP2X3 (setting [3]) was < 100 nM; on hP2X2/3H (setting [4]) it was 100 to 500 nM.

For `Cc1ncc([C@@H](C)NC(=O)c2cc(C(=O)N3CCCC3)cc(-c3ccc(Br)cc3)c2)cn1` [Compound 216], the IC50 on hP2X3 (setting [3]) and at hP2X2/3H (setting [4]) was < 100 nM each time.

On to `Cc1ccc([C@@H](C)NC(=O)c2cc(C(=O)N3CCCC3)cc(-c3ccc(Br)cc3)c2)cn1` [Compound 217], for which the IC50 on hP2X3 (setting [3]) and on hP2X2/3H (setting [4]) was < 100 nM in each case.

`Cc1ccc(-c2cc(C(=O)N[C@H](C)c3ccc(C)nc3)cc(S(=O)(=O)C3CCCC3)c2)cc1` [Compound 218]: the IC50 at hP2X3 (setting [3]) and on hP2X2/3H (setting [4]) was < 100 nM each time.

As for `Cc1ccc(-c2cc(C(=O)N[C@H](C)c3cnc(C)nc3)cc(S(=O)(=O)C3CCCC3)c2)cc1` [Compound 219, (R)-5-(Cyclopentylsulfonyl)-4′-methyl-N-(1-(2-methylpyrimidin-5-yl)ethyl)biphenyl-3-carboxamide], the IC50 on hP2X3 (setting [3]) and at hP2X2/3H (setting [4]) was < 100 nM each time.
